Consider one molecule from BindingDB's records for patent US10323000 (Merck Patent, 2019).

Bounds are passed on as bounds.

The assay deals with T1, P2X purinoceptor 7 (Homo sapiens, UniProt Q99572).
T1 sequence (Q99572 whole entry): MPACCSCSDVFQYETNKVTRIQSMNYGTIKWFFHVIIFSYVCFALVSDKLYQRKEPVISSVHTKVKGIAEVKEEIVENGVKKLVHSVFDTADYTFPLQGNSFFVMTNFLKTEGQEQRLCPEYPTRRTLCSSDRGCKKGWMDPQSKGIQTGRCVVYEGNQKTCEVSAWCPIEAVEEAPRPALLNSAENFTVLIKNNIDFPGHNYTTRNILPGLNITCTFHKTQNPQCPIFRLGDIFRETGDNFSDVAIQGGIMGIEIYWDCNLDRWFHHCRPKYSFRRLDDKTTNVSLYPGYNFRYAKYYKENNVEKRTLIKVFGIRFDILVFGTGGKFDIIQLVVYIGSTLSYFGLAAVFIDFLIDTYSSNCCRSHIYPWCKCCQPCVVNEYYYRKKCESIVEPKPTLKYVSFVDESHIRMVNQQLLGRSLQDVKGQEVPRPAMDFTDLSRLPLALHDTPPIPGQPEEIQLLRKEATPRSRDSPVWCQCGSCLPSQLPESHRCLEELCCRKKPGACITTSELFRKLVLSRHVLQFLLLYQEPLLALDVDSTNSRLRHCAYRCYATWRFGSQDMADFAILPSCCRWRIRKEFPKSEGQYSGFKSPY
Description: Pore Permeation Assay. The method, then:
Agonist-induced pore formation was determined by measuring cellular uptake of YO PRO fluorescence dye in HEK293 transfected with human P2X7 receptor. A HEK293 cell over expressing human P2X7 was harvested using HQTase reagent to detach the cells from T75 cm flask. The harvested cells are centrifuged @1200 rpm for 5 min at room temperature. The viability of cells was determined by Trypan blue dye and the cells are plated @10,000 cell/well in 50 ul volume in a 384W BD Poly lysine coated plate and incubated overnight at 37 C. […] The plate was centrifuged at 1000 rpm for 5 seconds and incubated at room temperature for 30 minutes. The uptake of YO PRO dye into the cells was measured using Envision Fluorescence plate reader instrument (Perkin Elmer).

Regarding `CCN(C)C(=O)Cn1cc(C(=O)NCC2CCC(F)(F)CC2)c2c(Cl)cccc21` [US10323000, Compound 163], the IC50 – broadly, the concentration that gives 50% inhibition – was less than 10 nM.
